From patent US8269051B2, “Wickerol and method for producing the same” (The Kitasato Institute, priority 2008, dated 2012)
Values after ≈ are worked out from the molar mass of the structure shown.

Assays:
MDCK cells = assay: Proliferation of MDCK cells alone (cytotoxicity); format: cell-based, canine; conditions: Canis lupus familiaris; MDCK cells without virus; read-out: IC50, inhibition of proliferation of the MDCK cells alone
[1] = test system: the microorganisms shown in the Table 3; assay: Antimicrobial activity, overall statement; format: cell-based; conditions: against the microorganisms shown in the Table 3
Protocol: Antimicrobial activity of the wickerol of the present invention was as follows. Each circular filter paper (Advantec, diameter: 6 mm) was soaked with 10 μl of methanol solution of the wickerol (1 mg/ml), and then allowed to air-dry for a predetermined time to remove a solvent. After the solvent was removed, the circular filter paper was placed on each of the following test microorganism-containing agar plates, and cultured for 24 hours at 35° C. Thereafter, a diameter of a growth inhibitory circle formed around each of the circular filter papers was measured, and the results were shown in Table 3.

[2] = test system: influenza virus A/PR/8/34; conditions: ratio of MDCK cytotoxicity IC50 to antiviral IC50
[3] = test system: influenza virus A/PR/8/34; assay: microbe, parasite or virus in culture; conditions: unidentified influenza virus, PR/8, MDCK, 72 h, read-out: IC50, inhibition of replication of influenza virus A/PR/8/34 through the infection of the MDCK cells

`CC1CCC2CC3(C)CCC4C3C1(CCC4(C)O)C2(C)C` (stereo not shown) [wickerol] was tested, and the IC50 (MDCK cells) was 7 µg/mL (≈ 24.1 µM), the antimicrobial activity [1] was “almost no antimicrobial activity” and the “inhibitory activity against the influenza virus replication relative to cytotoxicity” value [2] was “approximately 100 times”. It also gave an IC50 [3] of 0.07 µg/mL (≈ 0.241 µM).
